Measured values published in paper PMC3230241 (Nature biotechnology, 2011).

Biological target: MRCKα (Homo sapiens, UniProt Q5VT25)
Test: HotSpot radiometric kinase assay, MRCKα
Assay type: biochemical
Settings: compound 0.5 μM, 10 μM ATP

Chain of MRCKα (Q5VT25 1-473): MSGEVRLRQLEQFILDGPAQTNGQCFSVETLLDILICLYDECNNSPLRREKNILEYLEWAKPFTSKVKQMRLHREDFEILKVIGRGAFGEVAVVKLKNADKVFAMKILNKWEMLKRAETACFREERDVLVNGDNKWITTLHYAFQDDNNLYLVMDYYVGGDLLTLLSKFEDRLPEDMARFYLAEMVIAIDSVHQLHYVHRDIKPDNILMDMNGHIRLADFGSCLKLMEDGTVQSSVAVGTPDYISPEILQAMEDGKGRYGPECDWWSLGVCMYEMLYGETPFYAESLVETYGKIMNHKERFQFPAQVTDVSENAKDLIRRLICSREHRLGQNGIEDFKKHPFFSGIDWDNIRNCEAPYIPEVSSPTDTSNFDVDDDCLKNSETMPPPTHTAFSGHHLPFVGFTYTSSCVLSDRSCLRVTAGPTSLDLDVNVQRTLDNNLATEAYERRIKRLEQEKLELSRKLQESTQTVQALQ

O=C(Nc1cccc(Nc2cc(Nc3cccc(C(F)(F)F)c3)ncn2)c1)C1CC1 [EGFR Inhibitor]
inhibition of MRCKα (next most potent target): 22%
